Data on three compounds can be found in US8952024B2, “Herbicidal pyrimidone derivatives” (E I du Pont de Nemours and Company, priority 2009, dated 2015).

What all share (assay type): in vivo
Assay [1] relates to umbrella sedge (Cyperus difformis). Nature of the assay: Test B flooded paddy test. The gist of the method:
(§1)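 2-leaf seedlings; pots flooded 3 cm over soil at treatment; cpd dosed into floodwater, depth kept constant. Greenhouse 13–15 d. Visual rating vs untreated controls, 0 = no effect, 100 = complete control.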

Assay [2] relates to barnyardgrass (Echinochloa crus-galli). The experiment in a line: Test B flooded paddy test. The gist of the method:
as §1

Assay [3] relates to lambsquarters (Chenopodium album). The experiment in a line: Test B pre-/postemergence plant response. The settings on record: Postemergence. The essentials:
(§2)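 Test compounds, formulated in a non-phytotoxic solvent mixture with surfactant, are applied to the soil surface (loam and sand blend) right after seeding, or sprayed over plants at the 1- to 4-leaf stage grown in peat moss/vermiculite medium. After 13 to 15 days under glasshouse conditions, each species is scored visually from 0 (no effect) to 100 (complete control) against controls.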

Assay [4] relates to bermudagrass (Cynodon dactylon). The experiment in a line: Test B pre-/postemergence plant response. The settings on record: Postemergence. The gist of the method: as §2
In assay [5] the test system is morningglory (Ipomoea coccinea). The experiment in a line: Test B pre-/postemergence plant response. The settings on record: Postemergence. The essentials: as §2
Assay [6] deals with large crabgrass (Digitaria sanguinalis). The experiment in a line: Test B pre-/postemergence plant response. The settings on record: Postemergence. The gist of the method: as §2
Assay [7] concerns yellow nutsedge (Cyperus esculentus). Nature of the assay: Test B pre-/postemergence plant response. The settings on record: Postemergence. The essentials:
as §2

Assay [8] concerns green foxtail (Setaria viridis). The experiment in a line: Test B pre-/postemergence plant response. The settings on record: Postemergence. The gist of the method:
as §2

Assay [9] deals with wheat (Triticum aestivum). The experiment in a line: Test B pre-/postemergence plant response. The settings on record: Postemergence. The gist of the method: as §2
Assay [10] deals with goosegrass (Eleusine indica). The experiment in a line: Test B pre-/postemergence plant response. The settings on record: Postemergence. The gist of the method:
as §2

For assay [11], the system named is wild oat (Avena fatua). The experiment in a line: Test B pre-/postemergence plant response. The settings on record: Postemergence. The essentials:
as §2

[12] abbreviates: 250 g ai/ha, flooded paddy test, visual rating on 0 to 100 scale (0 no effect, 100 complete control) after 13 to 15 days.
Where [13] appears, read: Flood (flooded paddy test), 62 g ai/ha, scale of 0 to 100 where 0 is no effect and 100 is complete control, 13 to 15 days.
Setting [14] is: Flood (flooded paddy test), 125 g ai/ha, scale 0 to 100, 0 is no effect, 100 is complete control, 13 to 15 days.
[15] abbreviates: Flood, 31 g ai/ha, scale 0 to 100 (0 no effect, 100 complete control).
Where [16] appears, read: 31 g ai/ha, 0 to 100 scale (0 no effect, 100 complete control).
Setting [17] is: 62 g ai/ha, scale 0 to 100 (0 no effect, 100 complete control).
The mark [18] stands for this setting: 125 g ai/ha, scale 0 to 100 (0 no effect, 100 complete control).
[19] abbreviates: 250 g ai/ha, scale 0 to 100 (0 no effect, 100 complete control), 13 to 15 days.
[20] abbreviates: Flood (flooded paddy test), 62 g ai/ha, scale 0 to 100, 0 is no effect, 100 is complete control, 13 to 15 days.

Structures are written as SMILES.

`COCCn1c(-c2cccc(F)c2)ncc(C(=O)C2=C(O)C3CCC(C3)C2=O)c1=O` (stereo not drawn) [Compound 235]: in assay [1] (setting [12]), the “Plant response rating, Flood, Sedge, Umbrella” value was determined as 80. Also, the “Plant response rating, Sedge, Umbrella” value is on record as 70 in [1] (setting [13]) and 80 in assay [1] (setting [14]). In addition, the “Sedge, Umbrella plant response rating” value in assay [1] (setting [15]) amounted to 0. Besides, the “Plant response rating, Flood, Barnyardgrass” value in assay [2] (setting [12]) is recorded as 75. In addition, the figures for the “Plant response rating, Barnyardgrass” value in [2] (setting [13]) and in assay [2] (setting [14]) were 20 and 50, respectively. The “Barnyardgrass plant response rating” value in assay [2] (setting [15]) was 0. The “Plant response rating, Lambsquarters” value in assay [3] (setting [16]) is reported as 98; in assay [3] (setting [17]), 100; in assay [3] (setting [18]), 100; in [3] (setting [19]), 100. Besides, the “Plant response rating, Bermudagrass” value in assay [4] (setting [16]) was 98; in assay [4] (setting [17]), 98; in assay [4] (setting [18]), 100; in assay [4] (setting [19]), 100. Further, the “Plant response rating, Morningglory” value is reported as 95 in assay [5] (setting [16]), 98 in [5] (setting [17]), 100 in assay [5] (setting [18]) and 100 in [5] (setting [19]). Moreover, the “Plant response rating, Crabgrass, Large” value is listed as 98 in assay [6] (setting [16]), 98 in assay [6] (setting [17]), 98 in assay [6] (setting [18]) and 100 in assay [6] (setting [19]). The “Plant response rating, Nutsedge, Yellow” value in assay [7] (setting [16]) was 45; in assay [7] (setting [17]), 45; in assay [7] (setting [18]), 55; in assay [7] (setting [19]), 60. For the same compound, the “Plant response rating, Foxtail, Green” value is recorded as 90 in assay [8] (setting [16]), 90 in assay [8] (setting [17]), 95 in assay [8] (setting [18]) and 98 in assay [8] (setting [19]). Besides, the “Plant response rating, Wheat” value in assay [9] (setting [16]) is 45; in assay [9] (setting [17]) it was 80; in assay [9] (setting [19]), 80. The “Plant response rating, Goosegrass” value was determined as 95 in assay [10] (setting [16]), 98 in [10] (setting [17]), 98 in assay [10] (setting [18]) and 100 in assay [10] (setting [19]). Also, the “Plant response rating, Oat, Wild” value in assay [11] (setting [16]) came to 35; in [11] (setting [17]), 50; in assay [11] (setting [19]), 95.
`O=C1CCCC(O)=C1C(=O)c1cnc(-c2ccccc2)n(Cc2ccccc2)c1=O` [Compound 17, 5-[(2-hydroxy-6-oxo-1-cyclohexen-1-yl)carbonyl]-2-phenyl-3-(phenylmethyl)-4(3H)-pyrimidinone]: the pest or weed control at 250 g/ha was determined as 80% in [1] (Cyperus difformis, 360 h, 250 g ai/ha, flooded paddy test, visual rating on 0 to 100 scale (0 no effect, 100 complete control) after 13 to 15 days, read-out: Plant response rating, Flood, Sedge, Umbrella) and 25% in [2] (Echinochloa crus-galli, 360 h, 250 g ai/ha, flooded paddy test, visual rating on 0 to 100 scale (0 no effect, 100 complete control) after 13 to 15 days, read-out: Plant response rating, Flood, Barnyardgrass). The pest or weed control at 31 g/ha in [1] (Cyperus difformis, 360 h, Flood (flooded paddy test), 31 g ai/ha, scale of 0 to 100 where 0 is no effect and 100 is complete control, 13 to 15 days, read-out: Plant response rating, Sedge, Umbrella) turned out to be 0%; in assay [2] (Echinochloa crus-galli, 360 h, Flood (flooded paddy test), 31 g ai/ha, scale of 0 to 100 where 0 is no effect and 100 is complete control, 13 to 15 days, read-out: Plant response rating, Barnyardgrass), 0%. The pest or weed control at 62 g/ha was 70% in assay [1] (Cyperus difformis, 360 h, Flood (flooded paddy test), 62 g ai/ha, scale 0 to 100, 0 is no effect, 100 is complete control, 13 to 15 days, read-out: Plant response rating, Sedge, Umbrella) and 20% in [2] (Echinochloa crus-galli, 360 h, Flood (flooded paddy test), 62 g ai/ha, scale 0 to 100, 0 is no effect, 100 is complete control, 13 to 15 days, read-out: Plant response rating, Barnyardgrass). For the same compound, the pest or weed control at 125 g/ha worked out at 70% in assay [1] (Cyperus difformis, 360 h, Flood (flooded paddy test), 125 g ai/ha, scale 0 to 100, 0 is no effect, 100 is complete control, 13 to 15 days, read-out: Plant response rating, Sedge, Umbrella) and 25% in [2] (Echinochloa crus-galli, 360 h, Flood (flooded paddy test), 125 g ai/ha, scale 0 to 100, 0 is no effect, 100 is complete control, 13 to 15 days, read-out: Plant response rating, Barnyardgrass).
On to `Cc1ccc(-n2c(-c3ccccc3)ncc(C(=O)C3=C(O)CCCC3=O)c2=O)c(C)c1` [Compound 28], for which the “Plant response rating, Flood, Sedge, Umbrella” value in [1] (setting [12]) was found to be 80. For the same compound, the “Plant response rating, Sedge, Umbrella” value in assay [1] (setting [20]) is listed as 70. The “Plant response rating, Flood, Barnyardgrass” value in [2] (setting [12]) is 20. The “Plant response rating, Barnyardgrass” value in [2] (setting [20]) was 10.
